In patent US20220306695A1, “COMPSTATIN ANALOGUES AND THEIR MEDICAL USES” (priority 2019, published 2022):
Like-named read-outs stand apart in the source and are kept apart here. Starred links: 1 amine or outer side, 2 acyl side, 3 side chain; linkers in the order of their positions; H or OH if unused. Positions of bridges follow the written chain, without caps; N, C: chain ends. Non-standard residues stand in square brackets, D forms with d. Residues, ends and D or L forms follow the SMILES beside them. Groups on a side chain read outwards from the residue. *: point of attachment. Trp(1-Me) = Cn1cc(C[C@H](N)C(=O)O)c2ccccc21; Abu(4-yl) = O=C([C@H](CC[*:3])N[*:1])[*:2]; C18 diacid = O=C(O)CCCCCCCCCCCCCCCCC(=O)*; C16 diacid = O=C(O)CCCCCCCCCCCCCCC(=O)*; γGlu = O=C(O)[C@H](CCC(=O)[*:2])N[*:1]; AEEA = NCCOCCOCC(=O)O; Sar = CNCC(=O)O

Test system: classical complement pathway
Assay: In vitro haemolysis assay (inhibition of classical complement pathway)
Format: cell-based, human
Conditions: Table 3
Summary of the method: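 Serially diluted compound (9 points) was preincubated 15 min at room temperature with diluted human serum, titrated per batch to give 70-90% maximal haemolysis, in Tris/casein buffer pH 7.4 with Mg2+/Ca2+. Antibody-sensitized sheep erythrocytes were then added for 30 min at 37° C, and the reaction was stopped with EDTA. Haemolysis was read at A405, with IC50 from 4PL fit.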

[1] = human serum, sensitized sheep red blood cells, read-out: IC50[nM], in vitro analysis of inhibition of hemolysis

Row | SMILES | IC50 [1] [nM] | IC50 (cells that print μM, read-out: IC50, in vitro analysis of inhibition of hemolysis) [nM]
1 | CC[C@H](C)[C@@H]1NC(=O)[C@@H](NC(=O)[C@H](Cc2ccccc2)NC(=O)[C@H](CCC(=O)O)NC(=O)[C@H](CO)NC(C)=O)CSCC[C@@H](C(=O)N[C@H](C(=O)N[C@@H](CCC(=O)O)C(=O)NCC(=O)N[C@@H](CCC(=O)O)C(=O)NCC(=O)NCC(=O)NCC(=O)N[C@@H](CCCCNC(=O)CC[C@H](NC(=O)CNC(=O)CC[C@H](NC(=O)CCCCCCCCCCCCCCCCC(=O)O)C(=O)O)C(=O)O)C(N)=O)[C@@H](C)O)NC(=O)[C@H](CCCNC(=N)N)NC(=O)[C@H](Cc2c[nH]cn2)NC(=O)[C@H](CCC(=O)O)NC(=O)CNC(=O)[C@H](Cc2c[nH]c3ccccc23)NC(=O)[C@H](CC(=O)O)NC(=O)[C@H](CCC(N)=O)NC(=O)[C@H](Cc2cn(C)c3ccccc23)NC1=O [Compound 157, Ac-SEFA(1)I[1-Me-Trp]QDWGEHRhC(1)TEGEGGG-K([17-carboxy-heptadecanoyl][γGlu]G[γGlu])-NH2] (Ac-SEFCI[Trp(1-Me)]QDWGEHR[Abu(4-yl)]TEGEGGGK([γGlu-Gly-γGlu-C18 diacid])-NH2; thioether 4-14) | < 100 | –
2 | CC[C@H](C)[C@@H]1NC(=O)[C@@H](NC(=O)[C@H](Cc2ccccc2)NC(=O)[C@H](CCC(=O)O)NC(C)=O)CSCC[C@@H](C(=O)N(C)CC(=O)N[C@@H](CCC(=O)O)C(=O)N[C@@H](C)C(=O)NCCOCCOCC(=O)NCCOCCOCC(=O)N[C@@H](CCCCNC(=O)CC[C@H](NC(=O)CNC(=O)CC[C@H](NC(=O)CCCCCCCCCCCCCCCCC(=O)O)C(=O)O)C(=O)O)C(N)=O)NC(=O)[C@H](CCCNC(=N)N)NC(=O)[C@H](Cc2c[nH]cn2)NC(=O)[C@H](CCC(=O)O)NC(=O)CNC(=O)[C@H](Cc2c[nH]c3ccccc23)NC(=O)[C@H](CCC(=O)O)NC(=O)[C@H](CCC(N)=O)NC(=O)[C@H](Cc2cn(C)c3ccccc23)NC1=O [Compound 158, Ac-EFA(1)I[1-Me-Trp]QEWGEHRhC(1)[Sar]EA[Peg3][Peg3]-K([17-carboxy-heptadecanoyl][γGlu]G[γGlu])-NH2] (Ac-EFCI[Trp(1-Me)]QEWGEHR[Abu(4-yl)][Sar]EA[AEEA][AEEA]K([γGlu-Gly-γGlu-C18 diacid])-NH2; thioether 3-13) | < 250 | –
3 | CC[C@H](C)[C@@H]1NC(=O)[C@@H](NC(=O)[C@H](Cc2ccc(O)cc2)NC(=O)[C@H](C)NC(=O)[C@H](CO)NC(=O)CNC(=O)[C@H](CCC(=O)O)NC(C)=O)CSCC[C@@H](C(=O)N(C)CC(=O)N[C@@H](CCC(=O)O)C(=O)N[C@@H](CCCCN)C(=O)N[C@@H](CCC(=O)N[C@@H](CCCCNC(=O)COCCOCCNC(=O)COCCOCCNC(=O)CC[C@H](NC(=O)CCCCCCCCCCCCCCCCC(=O)O)C(=O)O)C(N)=O)C(=O)O)NC(=O)[C@H](CCCNC(=N)N)NC(=O)[C@H](Cc2c[nH]cn2)NC(=O)[C@H](CCC(=O)O)NC(=O)CNC(=O)[C@H](Cc2c[nH]c3ccccc23)NC(=O)[C@H](CC(=O)O)NC(=O)[C@H](CCC(N)=O)NC(=O)[C@H](Cc2cn(C)c3ccccc23)NC1=O [Compound 159, Ac-EGSAYA(1)I[1-Me-Trp]QDWGEHRhC(1)[Sar]EK[γGlu]-K([17-carboxy-heptadecanoyl][γGlu][Peg3][Peg3])-NH2] (Ac-EGSAYCI[Trp(1-Me)]QDWGEHR[Abu(4-yl)][Sar]EK[γGlu]K([AEEA-AEEA-γGlu-C18 diacid])-NH2; thioether 6-16) | < 100 | –
4 | CC[C@H](C)[C@@H]1NC(=O)[C@@H](NC(=O)[C@H](Cc2ccccc2)NC(=O)[C@H](CCC(=O)O)NC(=O)[C@H](CO)NC(C)=O)CSCC[C@@H](C(=O)N(C)CC(=O)N[C@@H](CCC(=O)O)C(=O)NCC(=O)N[C@@H](CCC(=O)O)C(=O)NCCOCCOCC(=O)NCCOCCOCC(=O)N[C@@H](CCCCNC(=O)CC[C@H](NC(=O)CNC(=O)CC[C@H](NC(=O)CCCCCCCCCCCCCCC(=O)O)C(=O)O)C(=O)O)C(N)=O)NC(=O)[C@H](CCCNC(=N)N)NC(=O)[C@H](Cc2c[nH]cn2)NC(=O)[C@H](CCC(=O)O)NC(=O)CNC(=O)[C@H](Cc2c[nH]c3ccccc23)NC(=O)[C@H](CC(=O)O)NC(=O)[C@H](CCC(N)=O)NC(=O)[C@H](Cc2cn(C)c3ccccc23)NC1=O [Compound 160, Ac-SEFA(1)I[1-Me-Trp]QDWGEHRhC(1)[Sar]EGE[Peg3][Peg3]-K([15-carboxy-pentadecanoyl][γGlu]G[γGlu])-NH2] (Ac-SEFCI[Trp(1-Me)]QDWGEHR[Abu(4-yl)][Sar]EGE[AEEA][AEEA]K([γGlu-Gly-γGlu-C16 diacid])-NH2; thioether 4-14) | < 100 | –
5 | CC[C@H](C)[C@@H]1NC(=O)[C@@H](NC(=O)[C@H](Cc2ccccc2)NC(=O)[C@H](CCC(=O)O)NC(=O)[C@H](CO)NC(C)=O)CSCC[C@@H](C(=O)N(C)CC(=O)N[C@@H](CCC(=O)O)C(=O)NCCOCCOCC(=O)NCCOCCOCC(=O)N[C@@H](CCCCNC(=O)CC[C@H](NC(=O)CNC(=O)CC[C@H](NC(=O)CCCCCCCCCCCCCCCCC(=O)O)C(=O)O)C(=O)O)C(=O)O)NC(=O)[C@H](CCCNC(=N)N)NC(=O)[C@H](Cc2c[nH]cn2)NC(=O)[C@H](CCC(=O)O)NC(=O)CN(C)C(=O)[C@H](Cc2c[nH]c3ccccc23)NC(=O)[C@H](CC(=O)O)NC(=O)[C@H](CCC(N)=O)NC(=O)[C@H](Cc2cn(C)c3ccccc23)NC1=O [Compound 162, Ac-SEFA(1)I[1-Me-Trp]QDW[Sar]EHRhC(1)[Sar]E[Peg3][Peg3]-K([17-carboxy-heptadecanoyl][γGlu]G[γGlu])-OH] (Ac-SEFCI[Trp(1-Me)]QDW[Sar]EHR[Abu(4-yl)][Sar]E[AEEA][AEEA]K([γGlu-Gly-γGlu-C18 diacid])-OH; thioether 4-14) | < 100 | –
6 | CC[C@H](C)[C@@H]1NC(=O)[C@@H](NC(=O)[C@H](Cc2ccccc2)NC(=O)[C@H](CCC(=O)O)NC(=O)[C@H](CO)NC(C)=O)CSCC[C@@H](C(=O)N[C@H](C(=O)N[C@@H](CCC(=O)O)C(=O)NCC(=O)N[C@@H](CCC(=O)O)C(=O)NCCOCCOCC(=O)N[C@@H](CCC(=O)O)C(=O)N[C@@H](CO)C(=O)N[C@@H](CCCCNC(=O)CC[C@H](NC(=O)CCCCCCCCCCCCCCCCC(=O)O)C(=O)O)C(=O)O)[C@@H](C)O)NC(=O)[C@H](CCCNC(=N)N)NC(=O)[C@H](Cc2c[nH]cn2)NC(=O)[C@H](CCC(=O)O)NC(=O)CNC(=O)[C@H](Cc2c[nH]c3ccccc23)NC(=O)[C@H](CC(=O)O)NC(=O)[C@H](CCC(N)=O)NC(=O)[C@H](Cc2cn(C)c3ccccc23)NC1=O [Compound 163, Ac-SEFA(1)I[1-Me-Trp]QDWGEHRhC(1)TEGE[Peg3]ES-K([17-carboxy-heptadecanoyl][γGlu])-OH] (Ac-SEFCI[Trp(1-Me)]QDWGEHR[Abu(4-yl)]TEGE[AEEA]ESK([γGlu-C18 diacid])-OH; thioether 4-14) | < 100 | –
7 | CC[C@H](C)[C@@H]1NC(=O)[C@@H](NC(=O)[C@H](Cc2ccccc2)NC(=O)[C@H](CCC(=O)O)NC(=O)[C@H](CO)NC(C)=O)CCSC[C@@H](C(=O)N(C)CC(=O)N[C@@H](CCC(=O)O)C(=O)NCCOCCOCC(=O)NCCOCCOCC(=O)N[C@@H](CCCCNC(=O)CC[C@H](NC(=O)CNC(=O)CC[C@H](NC(=O)CCCCCCCCCCCCCCCCC(=O)O)C(=O)O)C(=O)O)C(N)=O)NC(=O)[C@H](CCCNC(=N)N)NC(=O)[C@H](Cc2c[nH]cn2)NC(=O)[C@H](CCC(=O)O)NC(=O)CN(C)C(=O)[C@H](Cc2c[nH]c3ccccc23)NC(=O)[C@H](CC(=O)O)NC(=O)[C@H](CCC(N)=O)NC(=O)[C@H](Cc2cn(C)c3ccccc23)NC1=O [Compound 164, Ac-SEFhC(1)I[1-Me-Trpp]QDW[Sar]EHRA(1)[Sar]E[Peg3][Peg3]-K([17-carboxy-heptadecanoyl][γGlu]G[γGlu])-NH2] (Ac-SEF[Abu(4-yl)]I[Trp(1-Me)]QDW[Sar]EHRC[Sar]E[AEEA][AEEA]K([γGlu-Gly-γGlu-C18 diacid])-NH2; thioether 4-14) | < 100 | –
8 | CC[C@H](C)[C@@H]1NC(=O)[C@@H](NC(=O)[C@H](Cc2ccccc2)NC(=O)[C@H](CCC(=O)O)NC(=O)[C@H](CO)NC(C)=O)CCSC[C@@H](C(=O)N[C@H](C(=O)N[C@@H](CCC(=O)O)C(=O)NCC(=O)N[C@@H](CCC(=O)O)C(=O)NCCOCCOCC(=O)N[C@@H](CCC(=O)O)C(=O)N[C@@H](CO)C(=O)N[C@@H](CCCCNC(=O)CC[C@H](NC(=O)CCCCCCCCCCCCCCCCC(=O)O)C(=O)O)C(N)=O)[C@@H](C)O)NC(=O)[C@H](CCCNC(=N)N)NC(=O)[C@H](Cc2c[nH]cn2)NC(=O)[C@H](CCC(=O)O)NC(=O)CNC(=O)[C@H](Cc2c[nH]c3ccccc23)NC(=O)[C@H](CC(=O)O)NC(=O)[C@H](CCC(N)=O)NC(=O)[C@H](Cc2cn(C)c3ccccc23)NC1=O [Compound 165] (Ac-SEF[Abu(4-yl)]I[Trp(1-Me)]QDWGEHRCTEGE[AEEA]ESK([γGlu-C18 diacid])-NH2; thioether 4-14) | < 250 | –
9 | CC[C@H](C)[C@@H]1NC(=O)[C@@H](NC(=O)[C@H](Cc2ccccc2)NC(=O)[C@H](CCC(=O)O)NC(=O)[C@H](CO)NC(C)=O)CCSC[C@@H](C(=O)N(C)CC(=O)N[C@@H](CCC(=O)O)C(=O)NCC(=O)N[C@@H](CCC(=O)O)C(=O)NCCOCCOCC(=O)NCCOCCOCC(=O)N[C@@H](CCCCNC(=O)CC[C@H](NC(=O)CNC(=O)CC[C@H](NC(=O)CCCCCCCCCCCCCCCCC(=O)O)C(=O)O)C(=O)O)C(N)=O)NC(=O)[C@H](CCCNC(=N)N)NC(=O)[C@H](Cc2c[nH]cn2)NC(=O)[C@H](CCC(=O)O)NC(=O)CNC(=O)[C@H](Cc2c[nH]c3ccccc23)NC(=O)[C@H](CCC(=O)O)NC(=O)[C@H](CCC(N)=O)NC(=O)[C@H](Cc2cn(C)c3ccccc23)NC1=O [Compound 167] (Ac-SEF[Abu(4-yl)]I[Trp(1-Me)]QEWGEHRC[Sar]EGE[AEEA][AEEA]K([γGlu-Gly-γGlu-C18 diacid])-NH2; thioether 4-14) | < 500 | –
10 | CC[C@H](C)[C@H](N)C(=O)N[C@H]1CSSC[C@@H](C(=O)N[C@H](C(N)=O)[C@@H](C)O)NC(=O)[C@H](CCCN=C(N)N)NC(=O)[C@H](Cc2cnc[nH]2)NC(=O)[C@H](Cc2cnc[nH]2)NC(=O)CNC(=O)[C@H](Cc2c[nH]c3ccccc23)NC(=O)[C@H](CC(=O)O)NC(=O)[C@H](CCC(N)=O)NC(=O)[C@H](C(C)C)NC(=O)[C@H](C(C)C)NC1=O [Compstatin] | – | > 5000
